The values below come from patent publication US20140018380A1, “BICYCLIC HETEROARYL COMPOUNDS AS GPR119 RECEPTOR AGONISTS” (CENTAURUS BIOPHARMA CO., LTD., priority 2011, published 2014).

Structures are written as SMILES. Some results are limits rather than exact numbers.

This test addresses T1, human GPR119 (Homo sapiens, UniProt Q8TDV5).
T1 construct: host or cells: CHO cells (American Type Culture Collection)
T1 sequence (Q8TDV5 1-335): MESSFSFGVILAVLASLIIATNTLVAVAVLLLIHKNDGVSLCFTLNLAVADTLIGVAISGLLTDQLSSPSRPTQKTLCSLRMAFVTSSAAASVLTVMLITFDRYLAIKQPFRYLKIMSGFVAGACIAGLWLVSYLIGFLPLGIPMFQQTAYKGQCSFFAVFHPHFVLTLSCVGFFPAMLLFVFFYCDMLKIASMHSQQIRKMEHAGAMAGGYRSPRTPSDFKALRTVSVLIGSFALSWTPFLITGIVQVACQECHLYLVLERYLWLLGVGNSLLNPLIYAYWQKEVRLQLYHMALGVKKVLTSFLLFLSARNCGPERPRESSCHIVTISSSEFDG
The experiment in a line: cAMP assay (HTRF) with human GPR119 stable transfected CHO cells. The conditions noted are these: functional agonist activity; intracellular cAMP (HTRF) in human GPR119 stable transfected CHO cells, 30 min at 37° C. The test is classed as cell-based. On the procedure:
Testing of Compounds of the Invention In Vitro (cAMP Assay)
The functional agonist activities of compounds of the invention were characterized using a cAMP assay with human GPR119 stable transfected Chinese hamster ovary (CHO) cells (American Type Culture Collection, Manassas Va., USA). CHO cells were stable transfected with GPR119/pcDNA3.0 (SC307189, Origene). Transfected cells were then selected and maintained in culture media containing […] geneticin. Stable clones were obtained by limiting dilution and the expression of human-GPR119 in CHO cells was confirmed by HTRF (Homogeneous Time-Resolved Fluorescence) cAMP assay. The clones generating the best agonist stimulated signal window were selected for the cAMP assay development.
The cells were cultured in Dulbecco's Modified Eagle Medium (Invitrogen Corporation, Carlsbad, Calif., USA) containing 10% Fetal bovine serum, 1% Pen/Strep and […] G418 and grown in 75 cm2 tissue culture flasks until they reached 75-80% confluence.
The cells were harvested 16 hours prior to assay with 1 ml 0.05% Trypsine, washed with PBS and then plated into 96-well plates (8000 cells/well) containing DMEM medium and 10% BSA. Prior to assay, the cells were washed with assay stimulation buffer (HBSS containing 10 mM IBMX, 20 mM HEPES, 0.1% BSA) twice. Then cells were incubated for 30 min at 37° C. in the absence or presence of varying concentrations of agonists (i.e., the compounds of the present invention) in assay stimulating buffer with 0.1% DMSO. The intracellular levels of cAMP generated in the GPR119 transfected CHO cells were measured using the HTRF kit (CisBio, FR.). In brief, 20 ul d2-labeled cAMP and 20 ul cryptated labeled anti-cAMP antibody were added into 40 ul cells treated with agonist and the plates were incubated for 1 hour at room temperature in the dark. Cells were then transferred into white 96-well plate and the signal generated was measured using Envision (Perkin-Elmer, Norwalk, Conn.). EC50 values were calculated using the GraphPad Prism 5 program.
For orientation: Cyclic AMP is a second messenger, typically raised through Gs and lowered through Gi signalling.
In general, EC50 refers to the concentration at which the effect is half-maximal. Low values mean higher potency in that assay, high ones lower potency in that assay. Take `CCc1cnc(N2CCC(n3ccc4cc(-c5ccc(C#N)c(F)c5)c(F)cc43)CC2)nc1` [Example 13, 4-(1-(1-(5-ethylpyrimidin-2-yl)piperidin-4-yl)-6-fluoro-1H-indol-5-yl)-2-fluorobenzonitrile]: the concentration for a half-maximal effect (EC50) is less than 500 nM.
To `CCc1cnc(N2CCC(n3ccc4cc(-c5ccc(S(C)(=O)=O)cc5)c(F)cc43)CC2)nc1` [Example 6, 1-(1-(5-ethylpyrimidin-2-yl)piperidin-4-yl)-6-fluoro-5-(4-(methylsulfony)phenyl)-1H-indole] belongs less than 100 nM.
Molecule `CC(C)(C)OC(=O)N1CCC(n2ccc3cc(-c4ccc(S(C)(=O)=O)cc4)c(F)cc32)CC1` [Example 7, tert-butyl 4-(6-fluoro-5-(4-(methylsulfonyl)phenyl)-1H-indol-1-yl)piperidine-1-carboxylate] had an EC50 of less than 100 nM.
Molecule `CCc1cnc(N2CCC(n3nnc4cc(-c5ccc(-n6cnnn6)cc5)cnc43)CC2)nc1` [Example 2, 6-(4-(1H-tetrazol-1-yl)phenyl)-3-(1-(5-ethylpyrimidin-2-yl)piperidin-4-yl)-3H-[1,2,3]triazol o[4,5-b]pyridine] yielded an EC50 of less than 500 nM.
Under `CCc1cnc(N2CCC(n3ncc4cc(-c5ccc(S(C)(=O)=O)cc5)c(F)cc43)CC2)nc1` [Example 18, 1-(1-(5-ethylpyrimidin-2-yl)piperidin-4-yl)-6-fluoro-5-(4-(methylsulfonyl)phenyl)-1H-indazole] stands less than 200 nM; under `CCc1cnc(N2CCC(n3ccc4cc(-c5ccc(S(C)(=O)=O)cc5F)ccc43)CC2)nc1` [Example 11, 1-(1-(5-ethylpyrimidin-2-yl)piperidin-4-yl)-5-(2-fluoro-4-(methylsulfony)phenyl)-1H-indole], less than 500 nM.
Under `CCc1cnc(N2CCC(n3cc(C)c4cc(-c5ccc(S(C)(=O)=O)cc5)ccc43)CC2)nc1` [Example 5, 1-(1-(5-ethylpyrimidin-2-yl)piperidin-4-yl)-3-methyl-5-(4-(methylsulfone)phenyl)-1H-indole] stands less than 1000 nM; under `CCc1cnc(N2CCC(n3ccc4cc(-c5ccc(S(C)(=O)=O)cc5)ccc43)CC2)nc1` [Example 1, 1-(1-(5-ethylpyrimidin-2-yl)piperidin-4-yl)-5-(4-(methylsulfonyl)phenyl)-1H-indole], less than 300 nM.
Under `CCc1cnc(N2CCC(n3ccc4cc(-c5ccc(NS(C)(=O)=O)cc5)c(F)cc43)CC2)nc1` [Example 15, N-(4-(1-(1-(5-ethylpyrimidin-2-yl)piperidin-4-yl)-6-fluoro-1H-indol-5-yl)phenyl)methanesulfonamide] stands less than 1000 nM.
Take `CCc1cnc(N2CCC(n3ncc4cc(-c5ccc(-n6cnnn6)cc5)c(F)cc43)CC2)nc1` [Example 17, 5-(4-(1H-tetrazol-1-yl)phenyl)-1-(1-(5-ethylpyrimidin-2-yl)piperidin-4-yl)-6-fluoro-1H-indazole]: the EC50 is less than 50 nM.
Under `CCc1cnc(N2CCC(n3ccc4cc(-c5ccc(S(C)(=O)=O)cc5)ncc43)CC2)nc1` [Example 9, 1-(1-(5-ethylpyrimidin-2-yl)piperidin-4-yl)-5-(4-(methylsulfonyl)phenyl)-1H-pyrrolo[2,3-c]pyridine] stands less than 200 nM.
Under `CC(C)c1noc(N2CCC(n3ccc4cc(-c5ccc(S(C)(=O)=O)cc5)c(F)cc43)CC2)n1` [Example 19, 5-(4-(6-fluoro-5-(4-(methylsulfonyl)phenyl)-1H-indol-1-yl)piperidin-1-yl)-3-isopropyl-1,2,4-oxadiazole] stands less than 100 nM; under `CC(C)(C)OC(=O)N1CCC(n2ncc3cc(-c4ccc(S(C)(=O)=O)cc4)ccc32)CC1` [Example 16, tert-butyl 4-(5-(4-(methylsulfonyl)phenyl)-1H-indazol-1-yl)piperidine-1-carboxylate], less than 300 nM.
Under `CC(C)(C)OC(=O)N1CCC(n2ccc3cc(-c4ccc(S(C)(=O)=O)cc4)ccc32)CC1` [Example 10, tert-butyl 4-(5-(4-(methylsulfonyl)phenyl)-1H-indol-1-yl)piperidine-1-carboxylate] stands less than 200 nM.
As for `CCc1cnc(N2CCC(n3ccc4cc(-c5ccc(-n6cnnn6)cc5)ccc43)CC2)nc1` [Example 3, 5-(4-(1H-tetrazol-1-yl)phenyl)-1-(1-(5-ethylpyrimidin-2-yl)piperidin-4-yl)-1H-indole], the EC50 is less than 300 nM.
To `CCc1cnc(N2CCC(n3ccc4cc(-c5ccc(C#N)cc5)c(F)cc43)CC2)nc1` [Example 14, 4-(1-(1-(5-ethylpyrimidin-2-yl)piperidin-4-yl)-6-fluoro-1H-indol-5-yl)benzonitrile] belongs less than 500 nM; to `CCc1cnc(N2CCC(n3ccc4cc(-c5ccc(-n6cnnn6)cc5)c(F)cc43)CC2)nc1` [Example 12, 5-(4-(1H-tetrazol-1-yl)phenyl)-1-(1-(5-ethylpyrimidin-2-yl)piperidin-4-yl)-6-fluoro-1H-indole], less than 2000 nM; to `CCc1cnc(N2CCC(n3cc(Cl)c4cc(-c5ccc(S(C)(=O)=O)cc5)ccc43)CC2)nc1` [Example 8, 3-chloro-1-(1-(5-ethylpyrimidin-2-yl)piperidin-4-yl)-5-(4-(methylsulfonl)phenyl)-1H-indole], less than 500 nM.
